According to publication PMC8161391, “Synthesis of Novel Fluorinated Xanthine Derivatives with High Adenosine A2B Receptor Binding Affinity” (Pharmaceuticals, 2021):
Where “and” joins values, the source holds several entries; their conditions need not be identical. Equal entries are not always repeated. Where two headings read alike, the source gives them in different places. Blank lines part the entries; values can stand above or below the molecule they belong to.

Assays:
[1] = molecular target: T1, human adenosine A2A receptor (Homo sapiens, UniProt P29274); set-up: method as in PMID 19569717, PMID 30835463, PMID 16821798; details: cited from earlier work
T1 construct: host or cells: CHO or HEK cells (membrane preparations)
T1 sequence (P29274 whole entry): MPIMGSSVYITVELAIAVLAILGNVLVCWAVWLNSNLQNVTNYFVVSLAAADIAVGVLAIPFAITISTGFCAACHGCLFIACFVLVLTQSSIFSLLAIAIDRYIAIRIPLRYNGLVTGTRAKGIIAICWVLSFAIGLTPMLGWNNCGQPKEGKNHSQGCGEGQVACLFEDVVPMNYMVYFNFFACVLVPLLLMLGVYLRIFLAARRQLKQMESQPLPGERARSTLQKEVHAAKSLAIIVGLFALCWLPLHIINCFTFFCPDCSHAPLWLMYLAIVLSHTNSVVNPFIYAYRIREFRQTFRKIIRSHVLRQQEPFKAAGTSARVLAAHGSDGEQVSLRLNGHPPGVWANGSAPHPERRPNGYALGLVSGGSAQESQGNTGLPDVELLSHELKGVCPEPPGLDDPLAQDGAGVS

[2] = molecular target: T2, human adenosine A1 receptor (Homo sapiens, UniProt P30542); set-up: method as in PMID 19569717, PMID 30835463, PMID 16821798; details: cited from earlier work
T2 construct: host or cells: CHO or HEK cells (membrane preparations)
T2 sequence (P30542 1-326): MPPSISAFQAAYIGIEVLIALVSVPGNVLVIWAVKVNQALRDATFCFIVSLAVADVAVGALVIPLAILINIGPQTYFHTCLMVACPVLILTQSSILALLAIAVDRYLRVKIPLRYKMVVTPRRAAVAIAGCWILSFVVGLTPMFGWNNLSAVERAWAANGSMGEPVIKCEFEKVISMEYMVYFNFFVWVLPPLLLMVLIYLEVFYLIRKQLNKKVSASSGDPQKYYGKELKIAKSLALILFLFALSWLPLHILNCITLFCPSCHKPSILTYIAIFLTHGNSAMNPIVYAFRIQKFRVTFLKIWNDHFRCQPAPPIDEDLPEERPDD

[3] = molecular target: T3, human adenosine A3 receptor (Homo sapiens, UniProt P0DMS8); set-up: method as in PMID 19569717, PMID 30835463, PMID 16821798; details: cited from earlier work; for % Inhibition of Radioligand Binding A3: at a concentration of 1 µM (as headed)
T3 construct: host or cells: CHO or HEK cells (membrane preparations)
T3 sequence (P0DMS8 1-318): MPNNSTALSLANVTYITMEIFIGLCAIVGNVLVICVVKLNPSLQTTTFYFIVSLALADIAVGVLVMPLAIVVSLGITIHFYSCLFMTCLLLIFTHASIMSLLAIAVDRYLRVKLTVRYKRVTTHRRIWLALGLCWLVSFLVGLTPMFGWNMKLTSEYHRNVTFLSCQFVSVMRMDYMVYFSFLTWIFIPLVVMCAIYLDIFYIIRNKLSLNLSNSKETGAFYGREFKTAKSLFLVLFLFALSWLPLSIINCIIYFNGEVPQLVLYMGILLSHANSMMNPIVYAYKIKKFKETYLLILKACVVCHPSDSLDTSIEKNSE

[4] = molecular target: T1, human adenosine A2A receptor; assay: Competition binding assay, A2A receptor, radioligand [3H]MSX-2; details: for Selectivity Ratio Ki(Ax)/Ki(A2B) A2A/A2B: human receptors; for Ki: human receptor, vs [3H]MSX-2, mean ± SEM of three experiments
Procedure: (§1) For the two novel fluorinated xanthine derivatives, the binding affinity towards the adenosine receptor subtypes A2B, A2A, A1, and A3 was determined in competition binding assays by incubation of the appropriate standard radioligand with membrane preparations of Chinese hamster ovary (CHO) and human embryonic kidney (HEK) cells, respectively, expressing the corresponding human receptor subtype (Table 2).
(§2) Membrane preparations of recombinant CHO or HEK cells expressing the respective human adenosine receptor subtype were obtained according to Borrman et al. or purchased from Perkin Elmer (Waltham, MA, USA). Radioligand binding assays for human A1, A2A, A2B, and A3 receptors were performed according to Alnouri et al.. The following radioligands were employed: [^3H]2-chloro-N^6-cyclopentyladenosine ([^3H]CCPA, 1 nM) for the A1 receptor, [^3H]3-(3-hydroxypropyl)-7-methyl-8-(m-methoxystyryl)-1-propargylxanthine ([^3H]MSX-2, 1 nM) for the A2A receptor, [^3H]8-(4-[4-(4-chlorophenyl)piperazine-1-sulfonyl]phenyl)-1-propyl-2,3,6,7-tetrahydro-1H-purine-2,6-dione ([^3H]PSB-603, 0.3 nM) for the A2B receptor, and [^3H](R)-8-ethyl-4-methyl-2-(phenyl)1,4,7,8-tetrahydro-5H-imidazo[2,1-i]purin-5-one ([^3H]PSB-11, 1 nM) for the A3 receptor. Three separate experiments were performed for determination of Ki values. All data were analyzed with GraphPad Prism, version 4.1 (GraphPad Inc., La Jolla, CA).

[5] = molecular target: T3, human adenosine A3 receptor; assay: Competition binding assay, A3 receptor, radioligand [3H]PSB-11; details: for Selectivity Ratio Ki(Ax)/Ki(A2B) A3/A2B: human receptors; for inhibition at 1 µM / Ki: human receptor; for inhibition at 1 µM: at a concentration of 1 µM; for Ki: vs [3H]PSB-11, mean ± SEM of three experiments
Procedure: as §1, §2

[6] = molecular target: T2, human adenosine A1 receptor; assay: Competition binding assay, A1 receptor, radioligand [3H]CCPA; details: for Selectivity Ratio Ki(Ax)/Ki(A2B) A1/A2B: human receptors; for Ki: vs [3H]CCPA, mean ± SEM of three experiments
Procedure: as §1, §2

[7] = set-up: method as in PMID 32366046; details: cited from earlier work
[8] = cited from earlier work
adenosine A2B receptor = details: cited from earlier work
human A2B [9] = details: determined versus [3H]ZM214385 or [125I]IABOPX; read-out: Ki (human A2B) ± SEM; cited from earlier work
adenosine A2A receptor [10] = molecular target: adenosine A2A receptor; set-up: method as in PMID 19569717, PMID 30835463, PMID 16821798; details: rat brain cortical membranes; cited from earlier work
adenosine A1 receptor [11] = assay: Receptor binding with adenosine-receptor-expressing rat brain cortical membranes, A1; details: rat A1 versus human A2B, from published Ki values
adenosine A2A receptor [12] = assay: Receptor binding with adenosine-receptor-expressing rat brain cortical membranes, A2A; details: rat A2A versus human A2B, from published Ki values
adenosine A1 receptor [13] = molecular target: adenosine A1 receptor; set-up: method as in PMID 19569717, PMID 30835463, PMID 16821798; details: rat brain cortical membranes; cited from earlier work
[14] = molecular target: T4, human adenosine A2B receptor (Homo sapiens, UniProt P29275); assay: Competition binding assay, A2B receptor, radioligand [3H]PSB-603; details: vs [3H]PSB-603, mean ± SEM of three experiments
T4 construct: host or cells: CHO or HEK cells (membrane preparations)
T4 sequence (P29275 1-332): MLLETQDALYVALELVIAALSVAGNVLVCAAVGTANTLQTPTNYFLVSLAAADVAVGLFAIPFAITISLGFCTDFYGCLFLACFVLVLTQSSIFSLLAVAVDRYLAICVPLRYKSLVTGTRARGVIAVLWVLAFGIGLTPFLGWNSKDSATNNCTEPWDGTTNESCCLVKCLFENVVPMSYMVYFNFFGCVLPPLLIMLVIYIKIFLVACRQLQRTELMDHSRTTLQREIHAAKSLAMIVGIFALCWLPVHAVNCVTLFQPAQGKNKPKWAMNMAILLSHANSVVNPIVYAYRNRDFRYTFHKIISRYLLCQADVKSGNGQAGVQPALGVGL
Procedure: as §1, §2

[15] = Organ distribution of [3H]PSB-603 in mice; type: in vivo, CD-1 mice; details: 3 min p.i.
Procedure: To estimate the ability of [^3H]PSB-603 to penetrate the BBB in vivo, an initial biodistribution study in healthy CD1 mice was performed.
All animal studies followed the international guidelines on animal care, and the study protocols were approved by the Landesdirektion Leipzig, the local authority for animal care (Reg.-Nr.: TVV 08/13; Reference number: 24-9168.11/18/8; approval date: 12 June 2013). Animal experiments were performed with female CD-1 mice, 10–12 weeks old, obtained from the Experimental Centre of the Faculty of Medicine (MEZ) at the Leipzig University, Leipzig, Germany.
[^3H]PSB-603 (specific activity 2.92 TBq/mmol, Pharmaron formerly Quotient Bioresearch (Radiochemicals) Ltd, Cardiff, UK; the precursor was synthesized at the University of Bonn, Germany) was dissolved in 100 µL of sterile isotonic saline and administered as a bolus injection via the tail vein of the restrained animal. At 3 min (n = 3; dose: […]), retro-orbital blood samples were obtained from the anesthetized animals. Immediately afterwards, organs of interest were isolated and blood plasma was obtained by centrifugation of the whole blood sample (15,000 rpm, room temperature, 1 min). All samples were weighed and dissolved in SOLVABLE (PerkinElmer Life and Analytical Sciences, Rodgau, Germany) for 5 h at 50 °C, overnight at 30 °C, and a further 5 h at 50 °C. By adding H2O2, decolorization of the samples was achieved. The samples were left to cool down to room temperature before the addition of 15 mL of Ultima Gold cocktail (PerkinElmer Life and Analytical Sciences, Rodgau, Germany). The samples were shaken overnight, and the radioactivity was measured in a Beckman Liquid Scintillation Counter LS 6500 (Beckman Coulter, Fullerton, CA, USA). For each sample, the percentage of the injected dose was calculated and normalized according to the tissue weight (% ID/g tissue), followed by normalization according to the injected dose and the weight of the animal [(% ID/g tissue)/(100%/g animal)] to calculate the standardized uptake value (SUV) for each tissue.

human A2B [16] = molecular target: human A2B; set-up: method as in PMID 16759111; details: determined versus [3H]ZM214385; read-out: Ki (human A2B) ± SEM; cited from earlier work
[17] = at a concentration of 1 µM (as headed)

Selectivity Ratio Ki(Ax)/Ki(A2B) A2A/A2B [4]: >18,000
Selectivity Ratio Ki(Ax)/Ki(A2B) A3/A2B [5]: >18,000
Selectivity Ratio Ki(Ax)/Ki(A2B) A1/A2B [6]: >18,000
Molecule: CCCn1c(=O)[nH]c2nc(-c3ccc(S(=O)(=O)N4CCN(c5ccc(Cl)cc5)CC4)cc3)[nH]c2c1=O [PSB-603, 8-(4-[4-(4-chlorophenyl)piperazine-1-sulfonyl]phenyl)-1-propyl-2,3,6,7-tetrahydro-1H-purine-2,6-dione]
% Inhibition of Radioligand Binding A2A [1, 17]: 7 ± 14%
Ki [1]: > 10 µM
% Inhibition of Radioligand Binding A1 [2, 17]: 10 ± 3%
Ki [2]: > 10 µM
% Inhibition of Radioligand Binding A3 [3]: 10 ± 15%
Ki [3]: > 10 µM

Molecule: O=c1[nH]c(=O)c2cc(-c3ccnc([18F])c3)c(-c3ccco3)nc2[nH]1 [Compound 3]
brain uptake (in words) [7]: rather low
in vivo stability (in words) ([8]; compared to 2): considerably improved in vivo stability
affinity towards the A2B receptor (in words) (adenosine A2B receptor): good affinity

Molecule: CCCn1c(=O)c2[nH]c(-c3ccc(OCC(=O)Nc4ccc(C#N)cc4)cc3)nc2n(CCC)c1=O [MRS-1754]
Ki (human A2B [9]): 1.97 ± 0.31 nM

Selectivity Ratio Ki(Ax)/Ki(A2B) A1/A2B (adenosine A1 receptor [11]): 4
Selectivity Ratio Ki(Ax)/Ki(A2B) A2A/A2B (adenosine A2A receptor [12]): 35
Selectivity Ratio Ki(Ax)/Ki(A2B) A3/A2B [5]: 7
Molecule: CCCn1c(=O)[nH]c2nc(-c3ccc(S(=O)(=O)N4CCCCC4)cc3)[nH]c2c1=O [Compound 8]
Ki (adenosine A2A receptor [10]): 714 ± 122 nM
Ki (adenosine A1 receptor [13]): 91.1 ± 25 nM

Ki [14]: 9.97 ± 0.86 nM
Ki [4]: 375 ± 53 nM
Selectivity Ratio Ki(Ax)/Ki(A2B) A2A/A2B [4]: 38
inhibition at 1 µM [5]: 45%
Ki [5]: ~1000 nM
Ki ([6]; human receptor): 255 ± 32 nM
Selectivity Ratio Ki(Ax)/Ki(A2B) A1/A2B [6]: 25
Molecule: CCCn1c(=O)[nH]c2nc(-c3ccc(S(=O)(=O)Nc4ccnc(F)c4)cc3)[nH]c2c1=O [Compound 5, 4-(2,6-Dioxo-1-propyl-2,3,6,7-tetrahydro-1H-purin-8-yl)-N-(2-fluoropyridin-4-yl)benzenesulfonamide]

Molecule: O=C(Nc1cnc(-c2ccnc([18F])c2)c(-c2ccccc2F)n1)C1CC1 [Compound 2]
metabolic degradation in vivo (in words) ([8]; metabolism studies in mice): rapid metabolic degradation
affinity towards the adenosine A2B receptor (in words) (adenosine A2B receptor): good affinity

uptake in the bladder, appendix, and lung ([15]; mice): low to moderate
uptake in the liver ([15]; mice): high
uptake in the pituitary gland ([15]; mice): moderate
standardized uptake value (SUV) in brain ([15]; mouse brain, i.v., n = 3): 0.21 ± 0.07 and 0.2
Molecule: [^3H]8-(4-[4-(4-chlorophenyl)piperazine-1-sulfonyl]phenyl)-1-propyl-2,3,6,7-tetrahydro-1H-purine-2,6-dione [[^3H]PSB-603]

Molecule: [11CH3]n1nc(-c2ccccc2)c(=O)n2c3ccccc3nc12 [Compound 1]
IC50 (adenosine A2B receptor): 210 ± 12.3 nM

Molecule: Cn1c(=O)c2[nH]c(-c3cnn(Cc4cccc(C(F)(F)F)c4)c3)nc2n(C)c1=O [CVT-6975]
Ki (human A2B [16]): 1 nM

Molecule: CCCn1c(=O)[nH]c2nc(-c3ccc(S(=O)(=O)Nc4ccccc4)cc3)[nH]c2c1=O [Compound 7]
Ki (adenosine A2A receptor [10]): 23 ± 13 nM
Selectivity Ratio Ki(Ax)/Ki(A2B) A1/A2B (adenosine A1 receptor [11]): 0.06
% Inhibition of Radioligand Binding A3 [3]: 48%
Ki [3]: > 1 µM
Selectivity Ratio Ki(Ax)/Ki(A2B) A2A/A2B (adenosine A2A receptor [12]): 0.7
Selectivity Ratio Ki(Ax)/Ki(A2B) A3/A2B [5]: >32
Ki (adenosine A1 receptor [13]): 1.8 ± 1 nM

Ki [14]: 12.3 ± 3.6 nM
Ki [4]: 158 ± 28 nM
Selectivity Ratio Ki(Ax)/Ki(A2B) A2A/A2B [4]: 13
inhibition at 1 µM [5]: 38%
Ki [5]: > 1000 nM
Selectivity Ratio Ki(Ax)/Ki(A2B) A3/A2B [5]: >81
inhibition at 1 µM ([6]; human receptor, at a concentration of 1 µM): 44%
Ki ([6]; human receptor): ~1000 nM
Selectivity Ratio Ki(Ax)/Ki(A2B) A1/A2B [6]: 81
Molecule: CCCn1c(=O)[nH]c2nc(-c3ccc(S(=O)(=O)N4CCC(F)CC4)cc3)[nH]c2c1=O [Compound 6, 8-(4-((4-Fluoropiperidin-1-yl)sulfonyl)phenyl)-1-propyl-3,7-dihydro-1H-purine-2,6-dione]
